In PubChem BioAssay (NCI) one finds TGI and GI50 data, which are given here for 15 compounds.

Among the test systems are DMS 273 small cell lung; M19-MEL melanoma; OVCAR-8 ovarian; SF-539 CNS; MDA-MB-231 breast; KM20L2 colon; HOP-18 NSCLC; HCC-2998 colon; PC-3 prostate; NCI/ADR-RES ovarian; DMS 114 small cell lung; BT-549 breast; LXFL 529 NSCLC; RXF-631 renal.
Common to all, as to assay: inhibition of tumour cell growth, NCI panel, 48 h

The structures appear in SMILES notation.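 Grown in 96-well plates, cells were treated for 48 hours with each compound at five concentrations. Insufficient inhibition: endpoint recorded as highest concentration tested. Here, GI50 denotes the concentration required for 50% inhibition of growth. TGI denotes the concentration required for complete inhibition of growth.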

Regarding `Nc1nncs1`, the TGI in the assay with DMS 273 small cell lung is over 5000 µM; in the assay with M19-MEL melanoma, over 4550 µM; in the assay on OVCAR-8 ovarian it was over 5000 µM; with SF-539 CNS it was over 5000 µM; in the assay on MDA-MB-231 breast, over 5000 µM; in the assay on KM20L2 colon it was over 4800 µM. In addition, the TGI in the assay on HOP-18 NSCLC, in the assay on HCC-2998 colon, with PC-3 prostate, in the assay with NCI/ADR-RES ovarian, in the assay on DMS 114 small cell lung and in the assay with BT-549 breast was over 5000 µM in each case.
In the case of `O=C(O)C(Br)Cc1ccc2c(c1)OCO2` (centres undefined), the TGI in the assay on M19-MEL melanoma, in the assay on SF-539 CNS, in the assay with LXFL 529 NSCLC, with KM20L2 colon, in the assay with HCC-2998 colon and with DMS 114 small cell lung was over 100 µM each time.
Consider `COc1cc2c3c(n(C4CCNCC4)c(=O)c2cc1OC)-c1cc2c(cc1C3=O)OCO2`, for which, in the assay with HCC-2998 colon, the GI50 is 1.34 µM and the TGI is 2.71 µM. Besides, in the assay on NCI/ADR-RES ovarian, the GI50 was 0.823 µM and the TGI was 4 µM.
Take `COc1ccc(/C=C/[N+](=O)[O-])cc1`: the TGI in the assay on OVCAR-8 ovarian was 5.9 µM; with SF-539 CNS, 4.92 µM; with MDA-MB-231 breast, 55.3 µM; in the assay with HCC-2998 colon, 2.73 µM; with NCI/ADR-RES ovarian, over 100 µM.
Regarding `NC(=O)c1cc(C2OC(CO)C(O)C2O)nn1-c1ccc([N+](=O)[O-])cc1` (centres undefined), the TGI with DMS 273 small cell lung, with OVCAR-8 ovarian, in the assay on SF-539 CNS, in the assay with LXFL 529 NSCLC, in the assay with KM20L2 colon and in the assay on HOP-18 NSCLC was over 100 µM in each case. Besides, the TGI in the assay with HCC-2998 colon and with DMS 114 small cell lung was over 100 µM each time.
With `CC1(C)N=C(N)N=C(N)N1c1cccc(OCc2cccc([N+](=O)[O-])c2)c1`, the TGI was over 100 µM in the assay with OVCAR-8 ovarian; over 79.4 µM in the assay on SF-539 CNS; over 100 µM with MDA-MB-231 breast; over 82.7 µM in the assay with PC-3 prostate; over 100 µM with NCI/ADR-RES ovarian; over 100 µM with BT-549 breast.
For `O=C(O)CNCc1c2ccccc2[n+]([O-])c2ccccc12`, the TGI in the assay on DMS 273 small cell lung, in the assay on M19-MEL melanoma, in the assay with OVCAR-8 ovarian, in the assay on RXF-631 renal, in the assay with LXFL 529 NSCLC and with KM20L2 colon was over 100 µM each time. Further, the TGI in the assay with HOP-18 NSCLC, in the assay with HCC-2998 colon and in the assay on DMS 114 small cell lung was over 100 µM each time.
On to `S=C1NN=C2C(=C3CCCC4C5CCCCC5N2C34)N1` (centres undefined), for which the TGI in the assay on OVCAR-8 ovarian, in the assay on NCI/ADR-RES ovarian and in the assay with BT-549 breast was over 100 µM each time.
Take `O=C1c2ccccc2C(=O)c2c(O)c(O)cc(O)c21`: the TGI was over 100 µM with DMS 273 small cell lung; over 100 µM in the assay on M19-MEL melanoma; over 100 µM in the assay on OVCAR-8 ovarian; 66 µM with SF-539 CNS; over 100 µM in the assay on RXF-631 renal; over 100 µM in the assay with LXFL 529 NSCLC. Besides, in the assay on HCC-2998 colon, the TGI stood at 85.6 µM.
For the compound `O=C(O)Cc1[nH]cnc1C(=O)O`, the TGI with OVCAR-8 ovarian, in the assay on SF-539 CNS, in the assay on MDA-MB-231 breast, with HCC-2998 colon, with PC-3 prostate and with NCI/ADR-RES ovarian was over 100 µM each time. The TGI with BT-549 breast was over 100 µM.
As to `COC1/C=C\OC2(C)Oc3c(C)c(O)c4c(O)c(c(CN(C)C)c(O)c4c3C2=O)NC(=O)/C(C)=C\C=C/C(C)C(O)C(C)C(O)C(C)C(OC(C)=O)C1C` (centres undefined), the TGI with OVCAR-8 ovarian is over 100 µM; in the assay on SF-539 CNS, 45.5 µM; with MDA-MB-231 breast it was 92.8 µM; in the assay with HCC-2998 colon it was 55.8 µM; in the assay with PC-3 prostate, 72 µM; with NCI/ADR-RES ovarian, over 100 µM. The compound also registered a TGI in the assay with BT-549 breast of over 100 µM.
For the compound `COc1ccc(/C(Cl)=C(\C=O)c2ccc(Cl)c(Cl)c2)cc1OC`, the TGI in the assay on DMS 273 small cell lung was found to be 21.7 µM; in the assay on M19-MEL melanoma it was 23 µM; with OVCAR-8 ovarian it was 57.7 µM; in the assay with SF-539 CNS it was 19.2 µM; in the assay on RXF-631 renal it was 16.6 µM; with LXFL 529 NSCLC, 13.7 µM. Also, the TGI was found to be 18.8 µM in the assay with KM20L2 colon and 33.9 µM in the assay with DMS 114 small cell lung.
Take `CCCCCCCCCCCCCCCCOCCCOP(=O)(O)C1CCCN(O)C1=O` (centres undefined): the GI50 with OVCAR-8 ovarian was 3.29 µM; in the assay with SF-539 CNS it was 3.02 µM; in the assay with MDA-MB-231 breast, 2.3 µM; in the assay with HCC-2998 colon it was 1.11 µM; with PC-3 prostate, 0.468 µM; with NCI/ADR-RES ovarian it was 4.02 µM. The TGI in the assay on OVCAR-8 ovarian was 27.8 µM; in the assay with SF-539 CNS, 11 µM; in the assay on MDA-MB-231 breast, 16.8 µM; in the assay on HCC-2998 colon, 14.6 µM; in the assay with PC-3 prostate, 13.6 µM; in the assay on NCI/ADR-RES ovarian, 25.6 µM.
With `COC(=O)c1nc2c3c(cccc3c1C(=O)OC)Nc1ccccc1-2`, the TGI in the assay on SF-539 CNS is over 100 µM; in the assay with MDA-MB-231 breast, over 100 µM; in the assay on HCC-2998 colon it was over 100 µM; in the assay with PC-3 prostate it was 82.1 µM; with NCI/ADR-RES ovarian, over 100 µM; with BT-549 breast, over 100 µM.
As for `COc1cc2c3c(c4cc(OC)c(OC)cc4c2cc1OC)[C@H](O)[C@@H]1CCCN1C3`, the TGI amounted to 0.562 µM in the assay with MDA-MB-231 breast, 1.98 µM in the assay with PC-3 prostate, 2.97 µM with NCI/ADR-RES ovarian and 9.63 µM with BT-549 breast.
